Laboratory results as given in patent publication US7226911B2, “Hair keratin-associated proteins” (Keio University, priority 2001, dated 2007).

What was measured:
[1] = test system: hair cycle of mouse body hair; test: effect of the functional peptide to the hair cycle of mouse body hair; type: in vivo; settings: C3H/He mouse, applied to skin, 1% peptide
From the text: For the application of KAPs as hair growth agent, there is a possible problem for permeability to tissues in an intact size. Therefore, from the point of view of being a hair constituent element, the minimum repeat unit on KAP sequences was searched and designing of peptides was attempted with the crosslinking within the tissues as a goal. After preparing alignment from the primary sequence of amino acid obtained in Example 7, repeat motifs are searched, and 2 functional peptides, namely mouse high sulfur type KAPs: N′-SCCXPSCCXP-C′ (X: Q, V, R, I) [Seq. ID No. 2031, and mouse high G/Y type KAPs: N′-YGGXGYGSGY-C′ (X: Y, L, F)[Seq. ID No. 204] were designed. By using these functional peptides, the action to hair formation and hair-matrix cells was evaluated. […] Peptide solvent (Plasebo) was used as a negative control, and […] MINOXIDIL was used as a positive control. […] The effect was significant compared not only with peptide solvent as a negative control (FIG. 30), but also with MINOXIDIL of the same concentration, being a positive control (FIG. 31).

mouse hair-matrix cells = test: action on isolated mouse hair-matrix cells (energy metabolism activity in the mitochondria; change of form); type: cell-based; settings: during peptide treatment

Substance: N′-YGGXGYGSGY-C′ (X: Y, L, F) [high G/Y type peptide]
- effect to the hair cycle of mouse body hair (duration until hair coat / formation of body hair) [1]: shortening effect of the duration until hair coat was observed
- change of form of hair-matrix cells (mouse hair-matrix cells): a change of form of hair-matrix cells associated with the differentiation was observed
